Laboratory results: patent US11426405B2, “Inhibition of JAK-STAT signaling inhibits formation of neutrophil extracellular traps (NETs)” (The Brigham and Women's Hospital, Inc., priority 2017, dated 2022)
Where “and” joins values, the source holds several entries; their conditions need not be identical. Equal entries are not always repeated.

Assays:
[1] = tested on: Jak2^WT and Jak2^V617F mice; experiment: Venous stenosis model: partial ligation of the inferior vena cava; format: in vivo, mouse; conditions: for Thrombus formation rate (clots/mice): DNase 50 μg i.p. and 10 μg i.v. after surgery
Method: Sections were allowed to come to room temperature, before rinsing in PBS with 0.1% Tween 20 (PBST). Sections were blocked for 1 hour at room temperature with 10% FBS in PBST in a humidified chamber. Sections were incubated in the same chamber overnight at 4° C. with the primary antibodies described above against Ly6G and H3^cit in 10% FBS in PBST. Slides were rinsed in PBST before incubating with the secondary antibody under the same conditions as used for the primary antibody (goat anti-rat Ig (IgG) (Alexa555, 1.5 μg/mL) or donkey anti-rabbit IgG (Alexa647, 1.5 μg/mL). After a further wash in PBST sections were stained with DAPI and mounted as described above. Sections were visualized using Axiolmager D1 (Carl Zeiss Microscopy) and images taken using Axiocam MRc Camera (Carl Zeiss Microscopy). Zen software 2.3 (version 13) was used to analyze images. For the final images used in the figures, Alexa647 was represented using green.
After bone marrow harvest, c-Kit positive marrow cells were obtained from VavCre/Jak2^V617F KI mice using CD117 Microbeads according to manufacturer's instructions (Miltenyi Bitotec).
DNase 1 (Pulmozyme, Genentech) was diluted in sterile saline and injected immediately after surgery (50 μg intraperitoneally and 10 μg intravenously via tail vein). […] Mice were assessed for thrombosis at 4 hours.

[2] = tested on: neutrophils from patients with MPNs; experiment: NET formation in neutrophils from MPN patients receiving a JAK inhibitor; format: cell-based, human; conditions: individual JAK inhibitor-treated MPN patients; 4 μM ionomycin stimulation; some patients also on ASA or Hydrea
Excerpt: Whole blood was collected into ethylenediaminetetraacetic acid (EDTA)-coated tubes. Patients and controls were excluded if they had conditions that are known or suspected to affect NET formation such as active infection, active cancer (37), history of an autoimmune disease (38), treatment with immunosuppressive or anti-inflammatory drugs or history of diabetes (29). In addition, patients with recent history of infection, trauma or surgery (3 months before blood draw) were excluded. Therapy with acetylsalicylic acid (aspirin), hydroxyurea or anagrelide was allowed. […]
Neutrophil isolation and NET formation were carried out as previously described (39). […] Purity of cells was >95% as determined by Wright-Giemsa staining (FIG. 5B). For the screening NET assay, NET-bound neutrophil elastase was quantified using an available commercial kit according to manufacturer's instructions (Cayman chemical). […]
Fixed cells were processed as detailed above. Immunostaining, fluorescence microscopy and NET quantification procedures were similar for human and mouse specimens. […]
Images were acquired on an Axiovert 200M wide-field fluorescence microscope (Zeiss) coupled to an AxioCam MR3 monochromatic CCD camera (Zeiss) using a Zeiss Plan-Neofluar 20×/0.4 Con Ph2 objective lens with the Zeiss AxioVision software (version 4.6.3.0). […]

N#CC[C@H](C1CCCC1)n1cc(-c2ncnc3[nH]ccc23)cn1 [Ruxolitinib]
Thrombosis rate at 2 hours post-IVC ligation ([1]; Jak2^V617F mice, ruxolitinib 90 mg/kg twice a day for 72 hours, vehicle 45%): 0%
Thrombosis rate at 4 hours post-IVC ligation ([1]; Jak2^V617F mice, ruxolitinib 90 mg/kg twice a day for 72 hours, vehicle 71%): 21%
% NET formation [2]: 1.5% and 5.9% and 5.4% and 5.5%

C[C@H](Nc1cc(-c2cnn(C)c2)cc(Nc2cnccn2)n1)c1ccc(F)cc1 [NS-018]
% NET formation [2]: 6.9%

B1: DNase: deoxyribonuclease (DNase; Pulmozyme, Genentech), disrupts NET structures (protein, UniProt P24855 23-282, looked up)
Deoxyribonuclease-1: LKIAAFNIQTFGETKMSNATLVSYIVQILSRYDIALVQEVRDSHLTAVGKLLDNLNQDAPDTYHYVVSEPLGRNSYKERYLFVYRPDQVSAVDSYYYDDGCEPCGNDTFNREPAIVRFFSRFTEVREFAIVPLHAAPGDAVAEIDALYDVYLDVQEKWGLEDVMLMGDFNAGCSYVRPSQWSSIRLWTSPTFQWLIPDSADTTATPTHCAYDRIVVAGMLLRGAVVPDSALPFNFQAAYGLSDQLAQAISDHYPVEVMLK
Thrombus formation rate (clots/mice) ([1]; Jak2^V617F mice, vehicle 5/7, p=0.007): 0/8
Thrombus formation rate (clots/mice) ([1]; Jak2^WT mice, vehicle 5/8, p=0.06): 1/7
